Experimental data as given in patent publication US7595398B2, “N-(5-membered aromatic ring)-amido anti-viral compounds” (SmithKline Beecham Corporation, priority 2005, dated 2009).

tested on: HCV replicon I389luc-ubi-neo/NS3-3′/ET in ET (Huh-lucubineo-ET) cells; screening for HCV RNA dependent RNA polymerase; test: Replicon Assay (luciferase, ET cell line Huh-lucubineo-ET); type: cell-based; settings: Hepatitis C virus; inhibition of replication relative to no compound control; test concentration of 10 μM according to the fitted equation; luciferase 48-72 hours
Method in brief: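 Huh-derived ET cells stably carrying an I389luc-ubi-neo/NS3-3′/ET HCV replicon with a luciferase-ubiquitin-neomycin phosphotransferase fusion and adaptive NS3-5B mutations were cultured in DMEM with 10% fetal calf serum and 250 μg/mL G418. Cells were seeded at 0.5-1.0×10^4 cells/well in 96 well plates and given compound after 24 hrs. Luciferase was read 48-72 hours later with Bright-Glo reagents, and replication inhibition was expressed relative to untreated controls.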

| SMILES | inhibition at 10 µM |
| --- | --- |
| O=C(NC1CC1)c1ccc(-c2csc(NC(=O)C3CCCN3C(=O)OCc3ccncc3)n2)cc1 (centres unmarked) [Compound 5384, 2-[4-(4-Cyclopropylcarbamoyl-phenyl)-thiazol-2-ylcarbamoyl]-pyrrolidine-1-carboxylic acid pyridin-4-ylmethyl ester] | 99.7% |
| CC(C)c1ccc(-c2csc(NC(=O)[C@@H]3CCCN3C(=O)OCc3ccccc3)n2)cc1 [Compound 5069, 2-[4-(4-Isopropyl-phenyl)-thiazol-2-ylcarbamoyl]-pyrrolidine-1-carboxylic acid benzyl ester] | 3.15% |
| O=C(Nc1ccc(-c2cnc(NC(=O)[C@@H]3CCCN3C(=O)OCc3ccccc3)s2)cc1)C1CCCC1 [Compound 5110, 2-{5-[4-(Cyclopentanecarbonyl-amino)-phenyl]-thiazol-2-ylcarbamoyl}-pyrrolidine-1-carboxylic acid benzyl ester] | 89.6% |
| O=C(NC1CC1)c1ccc(-c2csc(NC(=O)[C@@H]3CCCN3C(=O)COc3ccccc3)n2)cc1 (stereo in doubt) [Compound 5331, 1-(2-Phenoxy-acetyl)-pyrrolidine-2-carboxylic acid [4-(4-cyclopropylcarbamoyl-phenyl)-thiazol-2-yl]-amide] | 43% |
| O=C(NC1CCCC1)c1ccc(-c2csc(NC(=O)[C@@H]3CCCN3C(=O)OCc3ccccc3)n2)cc1 [Compound 5100, 2-[4-(4-Cyclopentylcarbamoyl-phenyl)-thiazol-2-ylcarbamoyl]-pyrrolidine-1-carboxylic acid benzyl ester] | 99.1% |
| COc1ccc(-c2csc(NC(=O)[C@@H]3CCCN3C(=O)OCc3ccccc3)n2)cc1Cl [Compound 5090, 2-[4-(3-Chloro-4-methoxy-phenyl)-thiazol-2-ylcarbamoyl]-pyrrolidine-1-carboxylic acid benzyl ester] | 99.8% |
| O=C(Nc1ccccc1)c1ccc(-c2csc(NC(=O)C3CCCN3C(=O)OCc3ccccc3)n2)cc1 (centres unmarked) [Compound 5109, 2-[4-(4-Phenylcarbamoyl-phenyl)-thiazol-2-ylcarbamoyl]-pyrrolidine-1-carboxylic acid benzyl ester] | 100% |
| O=C(CCCCC1SC[C@@H]2NC(=O)N[C@H]12)NCCCCCC(=O)Nc1ccc(-c2csc(NC(=O)C3CCCN3C(=O)OCc3ccccc3)n2)cc1 (some centres unmarked) [Compound 5374, 2-[4-(4-{6-[5-(2-Oxo-hexahydro-thieno[3,4-d]imidazol-6-yl)-pentanoylamino]-hexanoylamino}-phenyl)-thiazol-2-ylcarbamoyl]-pyrrolidine-1-carboxylic acid benzyl ester] | 99.3% |
| N#Cc1ccc(-c2csc(NC(=O)[C@@H]3CCCN3C(=O)OCc3ccccc3)n2)cc1 [Compound 5305, 2-[4-(4-Cyanophenyl)-thiazol-2-ylcarbamoyl]-pyrrolidine-1-carboxylic acid benzyl ester] | 76.3% |
| CC(C)(C)OC(=O)N1CCCC(NC(=O)c2ccc(-c3csc(NC(=O)[C@@H]4CCCN4C(=O)OCc4ccccc4)n3)cc2)C1 (stereo in doubt) [Compound 5365, 3-(4-{2-[(1-Benzyloxycarbonyl-pyrrolidine-2-carbonyl)-amino]-thiazol-4-yl}-benzoylamino)-piperidine-1-carboxylic acid tert-butyl ester] | 99.9% |
| O=C(Nc1ccc(-c2csc(NC(=O)C3CCCN3C(=O)OCc3ccccc3)n2)cc1)C1CC1 (centres unmarked) [Compound 5018, 2-{4-[4-(Cyclopropanecarbonyl-amino)-phenyl]-thiazol-2-ylcarbamoyl}-pyrrolidine-1-carboxylic acid benzyl ester] | 100% |
| CNC(=O)c1ccc(-c2csc(NC(=O)[C@@H]3CCCN3C(=O)OCc3ccccc3)n2)cc1 [Compound 5105, 2-[4-(4-Methylcarbamoyl-phenyl)-thiazol-2-ylcarbamoyl]-pyrrolidine-1-carboxylic acid benzyl ester] | 100% |
| O=C(Nc1nc(-c2ccc(NS(=O)(=O)c3ccccc3)cc2)cs1)C1CCCN1C(=O)OCc1ccccc1 (centres unmarked) [Compound 5027, 2-[4-(4-Benzenesulfonylamino-phenyl)-thiazol-2-ylcarbamoyl]-pyrrolidine-1-carboxylic acid benzyl ester] | 99.7% |
| CCc1ccc(-c2csc(NC(=O)[C@@H]3CCCN3C(=O)OCc3ccccc3)n2)cc1 [Compound 5094, 2-[4-(4-Ethyl-phenyl)-thiazol-2-ylcarbamoyl]-pyrrolidine-1-carboxylic acid benzyl ester] | 3.49% |
| O=C(Nc1nc(-c2ccc(Cl)cc2Cl)cs1)[C@@H]1CCCN1C(=O)OCc1ccccc1 [Compound 5101, 2-[4-(2,4-Dichloro-phenyl)-thiazol-2-ylcarbamoyl]-pyrrolidine-1-carboxylic acid benzyl ester] | 69.2% |
| COC(=O)N1CCC[C@H]1C(=O)Nc1nc(-c2ccc(C(=O)NC3CC3)cc2)cs1 [Compound 5373, 2-[4-(4-Cyclopropylcarbamoyl-phenyl)-thiazol-2-ylcarbamoyl]-pyrrolidine-1-carboxylic acid methyl ester] | 81.5% |

| SMILES | inhibition at 10 µM |
| --- | --- |
| O=C(Cc1csc(NC(=O)[C@@H]2CCCN2C(=O)OCc2ccccc2)n1)NCCc1ccccc1 [Compound 5068, 2-[4-(Phenethylcarbamoyl-methyl)-thiazol-2-ylcarbamoyl]-pyrrolidine-1-carboxylic acid benzyl ester] | 13.5% |
| CC(=O)Nc1cccc(-c2csc(NC(=O)[C@@H]3CCCN3C(=O)OCc3ccccc3)n2)c1 [Compound 5015, 2-[4-(3-Acetylamino-phenyl)-thiazol-2-ylcarbamoyl]-pyrrolidine-1-carboxylic acid benzyl ester] | 99.4% |
| O=C(Nc1nc(-c2c(F)cccc2F)cs1)[C@@H]1CCCN1C(=O)OCc1ccccc1 [Compound 5059, 2-[4-(2,6-Difluoro-phenyl)-thiazol-2-ylcarbamoyl]-pyrrolidine-1-carboxylic acid benzyl ester] | 88% |
| O=C(Nc1nc(-c2ccc(F)cc2)cs1)[C@@H]1CCCN1C(=O)OCc1ccccc1 [Compound 5098, 2-[4-(4-Fluoro-phenyl)-thiazol-2-ylcarbamoyl]-pyrrolidine-1-carboxylic acid benzyl ester] | 97.2% |
| O=C(NC1CC1)c1ccc(-c2csc(NC(=O)[C@@H]3CCCN3C(=O)OCc3ccccc3)n2)cc1 [Compound 5096, 2-[4-(4-Cyclopropylcarbamoyl-phenyl)-thiazol-2-ylcarbamoyl]-pyrrolidine-1-carboxylic acid benzyl ester] | 100% |
| CCCOc1ccc(-c2cnc(NC(=O)[C@@H]3CCCN3C(=O)OCc3ccccc3)s2)cc1 [Compound 5011, 2-[5-(4-Propoxy-phenyl)-thiazol-2-ylcarbamoyl]-pyrrolidine-1-carboxylic acid benzyl ester] | 32.9% |
| O=C(Nc1nc(-c2ccc(Cl)c(Cl)c2)cs1)[C@@H]1CCCN1C(=O)OCc1ccccc1 [Compound 5034, 2-[4-(3,4-Dichloro-phenyl)-thiazol-2-ylcarbamoyl]-pyrrolidine-1-carboxylic acid benzyl ester] | 100% |
| O=C(Nc1nc(-c2ccc(S(=O)(=O)NC3CCCC3)cc2)cs1)C1CCCN1C(=O)OCc1ccccc1 (centres unmarked) [Compound 5354, 2-[4-(4-Cyclopentylsulfamoyl-phenyl)-thiazol-2-ylcarbamoyl]-pyrrolidine-1-carboxylic acid benzyl ester] | 87.5% |
| O=C(NC1CCCNC1)c1ccc(-c2csc(NC(=O)C3CCCN3C(=O)OCc3ccccc3)n2)cc1 (centres unmarked) [Compound 5343, 2-{4-[4-(Piperidin-3-ylcarbamoyl)-phenyl]-thiazol-2-ylcarbamoyl}-pyrrolidine-1-carboxylic acid benzyl ester] | 100% |
| O=C(Nc1nc(-c2ccc(C3CCCCC3)cc2)cs1)[C@@H]1CCCN1C(=O)OCc1ccccc1 [Compound 5024, 2-[4-(4-Cyclohexyl-phenyl)-thiazol-2-ylcarbamoyl]-pyrrolidine-1-carboxylic acid benzyl ester] | 11% |
| O=C(Nc1nc(CCc2ccccc2)cs1)[C@@H]1CCCN1C(=O)OCc1ccccc1 [Compound 5003, 2-(4-Phenethyl-thiazol-2-ylcarbamoyl)-pyrrolidine-1-carboxylic acid benzyl ester] | 99.9% |
| O=C(Nc1nc(-c2ccc(NCC3CC3)cc2)cs1)[C@@H]1CCCN1C(=O)OCc1ccccc1 [Compound 5330, 2-{4-[4-(Cyclopropylmethyl-amino)-phenyl]-thiazol-2-ylcarbamoyl}-pyrrolidine-1-carboxylic acid benzyl ester] | 98.8% |
| O=C(Nc1ncc(Cc2cccc(Cl)c2)s1)[C@@H]1CCCN1C(=O)OCc1ccccc1 [Compound 5029, 2-[5-(3-Chloro-benzyl)-thiazol-2-ylcarbamoyl]-pyrrolidine-1-carboxylic acid benzyl ester] | 0.52% |
| CC1(C)CC(c2csc(NC(=O)[C@@H]3CCCN3C(=O)OCc3ccccc3)n2)CCO1 (stereo in doubt) [Compound 5046, 2-[4-(2,2-Dimethyl-tetrahydro-pyran-4-yl)-thiazol-2-ylcarbamoyl]-pyrrolidine-1-carboxylic acid benzyl ester] | 8.29% |
| O=C(NC1CC1)c1ccc(-c2csc(NC(=O)[C@@H]3CCCN3C(=O)OCc3ccc(F)cc3)n2)cc1 [Compound 5361, 2-[4-(4-Cyclopropylcarbamoyl-phenyl)-thiazol-2-ylcarbamoyl]-pyrrolidine-1-carboxylic acid 4-fluoro-benzyl ester] | 98.4% |
| O=C(Nc1cccc(-c2cnc(NC(=O)[C@@H]3CCCN3C(=O)OCc3ccccc3)s2)c1)c1ccccc1 [Compound 5113, 2-[5-(3-Benzoylamino-phenyl)-thiazol-2-ylcarbamoyl]-pyrrolidine-1-carboxylic acid benzyl ester] | 99.7% |
